# In paper PMC6403019, “Nanoformulated Antiretroviral Therapy Attenuates Brain Metabolic Oxidative Stress” (Molecular Neurobiology, 2018):
# Assays:
# [1] = Plasma concentration after intramuscular injection of free DTG; assay type: in vivo, mice; details: single free DTG injection, 45 mg/kg
# brain metabolome = assay: Brain region-specific global metabolomics (LC-MS) after DTG injections; assay type: in vivo, mice (Balb/cJ); details: five brain regions, Fig. 4
# Description: Brain tissue subregions were extracted as previously described. Briefly, 0.6 mL of cold methanol:H2O (4:1, v/v) were added per 10 mg tissue (solvent volume was adjusted accordingly to tissue weight). Homogenization was performed with glass beads in a homogenizer and sonicated in an ice bath for 10 min. The mixtures were then transferred to 1.5-mL Eppendorf vials and rinsed with additional 200 μL extraction solvent. To precipitate proteins, the samples were incubated for 1 h at − 20 °C, followed by a 15-min centrifugation at 13,000 rpm at 4 °C. The resulting supernatant was evaporated to dryness in a vacuum concentrator. The dry extracts were then reconstituted in acetonitrile:H2O (1:1, v/v), normalized by tissue weight, sonicated for 10 min, and centrifuged for 15 min at 13000 rpm and 4 °C to remove insoluble debris. The supernatants were transferred to HPLC vials and stored at − 80 °C prior to LC-MS analysis.
# The extracts were analyzed on a 6550 iFunnel QTOF mass spectrometer coupled with a 1290 UPLC system (Agilent Technologies, Santa Clara, CA). For global metabolomics, a Luna Aminopropyl, 3 μm, 150 mm × 2.0 mm I.D. HILIC column (Phenomenex, Torrance, CA) was used. […]
# LC-MS data were converted to mzXML files using Masshunter Acquisition Software (Agilent Masshunter 6.0B). […] The relative quantification of metabolite features was based on extracted ion chromatogram areas. […]
# [2] = test system: mouse embryonic neuron cells; assay: ROS formation (DCFDA) in neurons; assay type: cell-based; details: administered at 100 and 500 μM
# Description: (§1) ROS were measured in neuron and MDM cells with the probe DCFDA (dichlorofluorescin diacetate, abcam, Cambridge, MA). Cells were seeded on black, clear-bottomed 96-well plates. After cells were pre-cultured with different treatments, the media were removed and the cells were washed with 1× buffer (supplied with the kit). Cells were incubated for 45 min in 1× buffer containing 25 μM DCFDA at 37 °C. DCF production was measured by fluorescence spectroscopy with excitation wavelength at 485 nm and emission wavelength at 535 nm. In this study, the cells were treated with increasing concentrations of free DTG, nano-DTG, and various vehicle, positive, and negative controls to compare ROS generation and lactate dehydrogenase (LDH)-based cytotoxicity generated by such treatments. […] TBHP (tert-butyl hydroperoxide; 10 μM) and PBS were used as the positive and negative controls, respectively. The vehicle control for nanoformulated DTG was composed of poloxamer micelles without the drug. […] Specifically, cells (both MDM and neurons) were treated for 2 h with various vehicle or drug concentrations. Then, cells were washed and new media was added, and after 24-h culture, cells were challenged with TBHP for 2 h, followed by fluorescence-based ROS measurements.
# human MDM [3] = assay: ROS formation (DCFDA) in MDM; assay type: cell-based; details: 100 μM
# Description: as §1
# [4] = test system: mouse embryonic neuron cells; assay: ROS levels after TBHP challenge in neurons; assay type: cell-based; details: 100 μM drug, then 10 μM TBHP; normalized with TBHP-positive control
# Description: as §1
# human MDM [5] = assay: ROS levels after TBHP challenge in MDM; assay type: cell-based; details: 10 to 100 μM drug, then 10 μM TBHP
# Description: as §1
# [6] = test system: mouse embryonic neuron cells; assay: Cellular uptake of DTG in neurons (LC-MS/MS MRM); assay type: in vitro ADME; details: treated with 100 μM
# Excerpt: Cycle time was 150 ms for each transition.
# neuron and MDM cells = assay: LDH-based cytotoxicity; assay type: cell-based; details: 500 μM in the dosing medium
# [7] = set-up: method as in PMID 21716073, PMID 23824675; details: HIV-infected adults, ten doses of monotherapy with 50 mg once daily DTG tablets; cited from earlier work
smiles,measurement,setting,value
"C[C@@H]1CCO[C@H]2Cn3cc(C(=O)NCc4ccc(F)cc4F)c(=O)c(O)c3C(=O)N12 [free DTG, dolutegravir]",plasma concentration,[1],up to 11.29 μg/mL
same,"changes of oxidative stress metabolites (ascorbic acid, threonate, GSH, GSSG) vs controls",brain metabolome,statistically significant (p value < 0.05) with the exception of ascorbic acid levels observed in the H
same,"ROS fold change vs vehicle control, neurons",[2],up to 1.5 times of control
same,"ROS fold change vs vehicle control, MDM",human MDM [3],0.8 times
same,"ROS fold change after TBHP challenge, neurons",[4],4
same,"ROS response to TBHP challenge, MDM",human MDM [5],induced ROS formation in a dose-response at higher concentrations (60 to 100 μM)
same,DTG concentration in neurons,[6],168 ng/10^6 cells
same,cytotoxicity (LDH-based),neuron and MDM cells,did not show significant cytotoxicity
same,steady-state plasma concentration (Cmax),[7],3.34 µg/mL
